Assay results reported in patent publication US6916852B2, “Method for regulation of microvascular tone” (University of Tennessee Research Foundation, priority 2003, dated 2005).
Like-named read-outs stand apart in the source and are kept apart here.

Key:
cremaster arterioles = test: Intravital microscopy of cremaster muscle arterioles; assay type: in vivo, C57-BL mice
Protocol: Male C57-BL mice age 7-8 weeks and weighing approximately 20 grams are anesthetized with an intramuscular injection of 100 to 150 microliters of a mixture of ketamine and xylazine (87 mg ketamine and 13 mg xylazine per ml) based on the weight of the individual animal. The body temperature was maintained at about 37° C. by convective heating. The animal is supinated, a midline incision is made in the ventrocervical region, and the underlying tissues are bisected laterally to expose the trachea. A tracheotomy is performed and the animal is intubated directly with PE50 tubing to facilitate ventilation. The wound is then closed.
The left rear limb is incised to expose the femoral neurovascular bundle and the femoral vein is isolated and catheterized with PE10 tubing attached to a syringe containing normal saline. The animal is then placed on a specially designed surgery board and the right testicle within the scrotum is oriented over a translumination observation window contained in the surgery board. The scrotum is irrigated with warmed (about 37° C.) physiological saline (4.3 mM NaHCO3, 126.4 mM NaCl, 0.9 mM KCl, 0.4 mM CaCl2, 0.2 mM MgSO4). The scrotum is incised medially and the underlying fascia is bluntly dissected to expose the testicle. The apical portion of the cremaster muscle is pinned distally on the surgery board and the cremaster muscle is incised along its long axis to expose the testicle. The testicle is then gently forced back into the inguinal canal, allowing the cremaster muscle to be pinned evenly around the translumination window.
(§1) All experiments are carried out using an industrial grade microscope (Nikon MM-11) with two light sources, bright field (OptiQuip 75 W xenon) and fluorescent (Nikon 150 W mercury). The primary camera assembly has a chilled charged coupled device (CCD) and controller (Hamamastu C5985). The secondary camera assembly has a CCD camera (MTI CCD72) in conjunction with an intensifier (MTI […]). Experiments are viewed on a video monitor and recorded on a digital video recorder for off-line processing.
The prepared animal, as described above in Examples 1 and 2, is placed on the stage of the microscope on the surgery board with the translumination window. Exposed tissues are irrigated with warmed physiological saline through which a N2/CO2 (95%/5%) mixture is bubbled. The tissue is allowed to equilibrate until normal blood flow is observed or perfusate flow stabilizes, during which time the tissue is scanned at 1-X for A1-A4 arterioles. The arterioles are then tested for physiological tone by the topical administration of 0.1 mM adenosine (positive control).
(§2) After the arteriole returns to resting diameter (about 10 minutes) the tissue is treated topically with test chemical drugs or the drugs are administered systemically and the responses of the arterioles are viewed at 20× magnification. Topical treatment is by directly applying a vehicle solution (1:1:18 stepantex:ethanol:saline) or a drug plus vehicle solution. Systemic treatments in the whole animal are administered through the femoral vein catheter. The arteriole is video recorded during the entire procedure for off-line analysis. The blood pressure is monitored throughout the procedure utilizing a 1.4 F (0.56 mm) Millar catheter pressure transducer inserted into the left ventricle via the aorta. Systolic and diastolic blood pressure, and heart rate are recorded. Drug dosing regimens for the animals are based on literature values or values experimentally determined via drug titration curves on a mg/kg basis.
The video images of Example 3 are analyzed off-line by first converting the digital AVI files into digital image files followed by analysis using MetaMorph software (Universal Imaging Co.) on a Dell Optiplex GX-1. Calibration of the software is done using a micrometer slide and measurements are defined in micrometers/pixel. […]

cannabinoid receptors = details: cited from earlier work; for effect on blood pressure, intra-arterially administered (Adams): intra-arterial; for effect on blood pressure, intravenously administered (Adams): intravenous
[1] = rats subsequently bled; doubled from about 30 minutes; cited from earlier work
mesenteric arterioles = test: Intravital microscopy of mesenteric arterioles; assay type: in vivo, C57-BL mice; details: topical
Protocol: Animals as described in Example 1 are prepared for surgery as described in Example 1. The animal is supinated on the surgery board so that the ventral portion of the animal faces the observation window. Upon irrigation with warmed physiological saline, a midline incision is made through the linea alba. A loop of small intestine from the lower duodenal segment is extracted and pinned around the observation window, with the pins passing through the proximal mesentery and not through the intestine proper.
as §1, with “processing. […]” for “processing.”
as §2, with “Topical treatment is by directly applying a vehicle solution (1:1:18 stepantex:ethanol:saline) or a drug plus vehicle solution. Systemic treatments in the whole animal are administered through the femoral vein catheter.” left out
The video images of Example 3 are analyzed off-line by first converting the digital AVI files into digital image files followed by analysis using MetaMorph software (Universal Imaging Co.) on a Dell Optiplex GX-1. […]
Data analysis is carried out using GraphPad, Prism software. […] Time course curves are fit using non-linear regression from which the rate of vessel constriction or dilation is calculated. […]

[2] = cited from earlier work; for changes in blood pressure or renal function (Dilger): therapeutic doses for 15 days, healthy young or elderly subjects
[3] = systemically administered, 2 mg/kg NS-398

**Q.** Which “change in cremaster arteriolar diameter (FIG. 5B)” value (cremaster arterioles; systemically administered, by about 200 seconds post-administration) does the source give for `CCCCC/C=C\C/C=C\C/C=C\C/C=C\CCCC(=O)NCCO` [ANA, arachidonyl ethanolamide] here?
**A.** The value was “causes a dilatation of cremaster arterioles”.

**Q.** What about the “change in cremaster arteriolar diameter (FIG. 5A)” value (cremaster arterioles; topically administered, by about 200 seconds post-administration) of the same compound?
**A.** The value was “causes a dilatation of cremaster arterioles”.

**Q.** What about the “effect on blood pressure (Kunos, U.S. Pat. No. 5,939,429)” value (cannabinoid receptors; in vivo) of the same compound?
**A.** The value was “causes hypotension”.

**Q.** With `CCCCCCC(C)(C)c1cc(O)c2c(c1)OC(C)(C)[C@@H]1CC=C(CO)C[C@@H]21` [HU-210] as the compound, how does the “survival time (Wagner)” value [1] read?
**A.** Its value is roughly 60 min.

**Q.** Which results are given for `CS(=O)(=O)Nc1ccc([N+](=O)[O-])cc1OC1CCCCC1` [NS-398, N-(2-cyclohexyloxy-4-nitrophenyl) methane sulphonamide]?
**A.** initial increase in arteriolar diameter (FIG. 2) (cremaster arterioles; [3]): ~8%; time to return to baseline diameter (FIG. 2) (cremaster arterioles; [3]): ≤ 3 min

**Q.** For `CCCCCc1cc(O)c2c(c1)OC(C)(C)[C@@H]1CC=C(C)C[C@@H]21` [THC, Δ^8-tetrahydrocannabinol], which “time post-administration of return to baseline diameter (FIG. 3B)” value (cremaster arterioles; systemic, 12 mg/kg THC alone) is on record?
**A.** The value was “about 30 seconds”.

**Q.** And the “initial mild constriction of arterioles (FIG. 3B)” value (cremaster arterioles; systemic, initial 100 seconds)?
**A.** Its value is “about 15%”.

**Q.** And the “response of cremaster arterioles to topical application (FIG. 3A)” value (cremaster arterioles; topical)?
**A.** The value was “mirrors that of the response to systemic administration of THC”.

**Q.** And the “duration of initial brief constriction (FIG. 4)” value (mesenteric arterioles)?
**A.** The value was “less than 5 seconds”.

**Q.** And the “response of mesenteric arterioles (FIG. 4)” value (mesenteric arterioles)?
**A.** The value was “biphasic response”.

**Q.** What about the “time post administration of return to baseline (FIG. 4)” value (mesenteric arterioles) of the same compound?
**A.** The value was “about 100 seconds”.

**Q.** And the “effect on blood pressure, intra-arterially administered (Adams)” value (cannabinoid receptors)?
**A.** Its value is “produced an increase in blood pressure indicative of vasoconstriction”.

**Q.** What about the “effect on blood pressure, intravenously administered (Adams)” value (cannabinoid receptors) of the same compound?
**A.** Its value is “transient increase in blood pressure that lasted only about one minute and that was followed by a more prolonged hypotensive response”.

**Q.** What about the “effect on blood pressure, intravenously administered (Adams)” value (cannabinoid receptors; listed as Δ^8-tetrahydrocannabinol) of the same compound?
**A.** The value was “caused decreases in blood pressure”.

**Q.** And the “survival time (Wagner)” value [1]?
**A.** Its value is roughly 60 min.

**Q.** For `Nc1ncnc2c1ncn2[C@@H]1O[C@H](CO)[C@@H](O)[C@H]1O` [adenosine], which “change in arteriole diameter (FIG. 1B)” value (cremaster arterioles; topical administration of adenosine, cremaster arteriole) is on record?
**A.** The value was “Dilation of the arteriole”.

**Q.** Which results are given for `Cc1ccc(-c2cc(C(F)(F)F)nn2-c2ccc(S(N)(=O)=O)cc2)cc1` [celecoxib]?
**A.** effect on blood pressure (Johnson) ([2]; patients, administered for six weeks): inconclusive; changes in blood pressure or renal function (Dilger) [2]: not associated with significant changes in blood pressure or renal function

**Q.** With `O=C(O)Cc1ccccc1Nc1c(Cl)cccc1Cl` [diclofenac] as the compound, how does the “changes in blood pressure or renal function (Dilger)” value [2] read?
**A.** The value was “not associated with significant changes in blood pressure or renal function”.

**Q.** Which “effect on blood pressure (Johnson)” value ([2]; in vivo) does the source give for `CS(=O)(=O)c1ccc(C2=C(c3ccccc3)C(=O)OC2)cc1` [rofecoxib] here?
**A.** The value was “found to elevate blood pressure”.

**Q.** With `CCCCCc1cc(O)c2c(c1)OC(C)(C)[C@@H]1CCC(C)=C[C@@H]21` [Δ^9-tetrahydrocannabinol] as the compound, how does the “effect on blood pressure, intra-arterially administered (Adams)” value (cannabinoid receptors) read?
**A.** The value was “produced an increase in blood pressure indicative of vasoconstriction”.

**Q.** What about the “effect on blood pressure, intravenously administered (Adams)” value (cannabinoid receptors) of the same compound?
**A.** Its value is “caused decreases in blood pressure”.
